# Experimental data from patent publication US4818770A, “Prevention of a plant disease by specific inhibition of fungal polyamine biosynthesis” (priority 1986, dated 1989).
# Read-outs that look alike come from different tables or passages of the source.
# Columns and labels:
# [1] = system: Uromyces phaseoli; test: Translocation of protective effect in partially treated unifoliolate bean leaves; assay type: in vivo; settings: for Lesions per cm^2, treated side / Lesions per cm^2, untreated side / Lesions per half leaf, treated side / Lesions per half leaf, untreated side: 1.0 mM on one longitudinal half leaf
# [2] = system: tomato plants; test: Effect on growth of uninoculated tomato plants; assay type: in vivo, Lycoperisicon esculentum; settings: concentrations up to 20 mM; 28-day observation period
# [3] = system: P. graminis f. sp. tritici; assay type: in vivo, Puccinia graminis f. sp. tritici
# [4] = system: U. phaseoli; test: Kinetics of bean rust inhibition by delayed postinoculation DFMO; assay type: in vivo, Uromyces phaseoli
# [5] = system: U. phaseoli; test: Bean rust severity after DFMO and polyamines alone or combined; assay type: in vivo, Uromyces phaseoli
# [6] = system: U. phaseoli uredospores; test: Uredospore germination on the surface of the unifoliolate bean leaf; assay type: in vivo, Uromyces phaseoli; settings: sprayed 1 day before inoculation
# [7] = system: Collectotrichum lagenarium; test: Radial growth in vitro of cucumber anthracnose fungus; assay type: cell-based, Colletotrichum lagenarium
# Method: See Table 15 for the effect of DFMO on radial growth in vitro on cucumber anthracnose fungus (Colletcotrichum lagenarium). The cucumber anthracnose fungus growing in Czapek's agar in Petri plates is not affected by DFMO up to 5 mM.
# [8] = system: Botrytis sp., B. cinerea, Rhizoctonia solani, Monilinia fructicola; settings: Botrytis sp., B. cinerea, Rhizoctonia solani, Monilinia fructicola; cited from earlier work
# [9] = Tabor et al. (1985); cited from earlier work
# [10] = system: Uromyces phaseoli; test: Bean rust lesions on reinoculated trifoliolate leaves; settings: for Lesions per cm^2 / Lesions per leaflet: reinoculated trifoliolate leaves
# Description: Trifoliolate leaves were reinoculated with pathogen after 1 week, before
# or after exposure to DFMO, to detect transfer of a protective effect to
# other parts of the plant.
# [11] = 1.0 mM DFMO sprayed 1 d after spore inoculation
# [12] = 1.0 mM DFMO sprayed 2 d after spore inoculation
# [13] = 1.0 mM DFMO sprayed 3 d after spore inoculation
# [14] = 1.0 mM DFMO sprayed 4 d after spore inoculation
# [15] = 1.0 mM DFMO sprayed 5 d after spore inoculation
# [16] = DFMO 0.05 mM alone, postinoculation
# [17] = postinoculation exposure, DFMO 0.05 mM
# [18] = postinoculation exposure, DFMO 0.1 mM
# [19] = postinoculation exposure, DFMO 0.5 mM
# [20] = postinoculation exposure, DFMO 1.0 mM
# [21] = postinoculation exposure, DFMO 5.0 mM
# [22] = preinoculation exposure, DFMO 0.05 mM
# [23] = preinoculation exposure, DFMO 0.1 mM
# [24] = preinoculation exposure, DFMO 0.5 mM
# [25] = preinoculation exposure, DFMO 1.0 mM
# [26] = preinoculation exposure, DFMO 5.0 mM
structure (smiles),measurement,setting,value
"NCCCC(N)(C(=O)O)C(F)F (racemic) [DFMO, DL-alpha-difluorimethylornithine]",protection of the untreated half of the leaf,[1]; petiolar or apical half treated with 1 mM DFMO,the other half was also protected against infection
same,"Lesions per cm^2, treated side",[1]; postinoculation exposure,0 per cm^2
same,"Lesions per cm^2, untreated side",[1]; postinoculation exposure,0 per cm^2
same,"Lesions per half leaf, treated side",[1]; postinoculation exposure,0 per half leaf
same,"Lesions per half leaf, untreated side",[1]; postinoculation exposure,0 per half leaf
same,"Lesions per cm^2, treated side",[1]; preinoculation exposure,0 per cm^2
same,"Lesions per cm^2, untreated side",[1]; preinoculation exposure,22 ± 4 per cm^2
same,"Lesions per half leaf, treated side",[1]; preinoculation exposure,0 per half leaf
same,"Lesions per half leaf, untreated side",[1]; preinoculation exposure,617 ± 112 per half leaf
same,growth and development of uninoculated tomato plants,[2],no apparent effects on the growth and development of the plants
same,% control,"[3]; post-inoculation, 0.01 mM",36%
same,Uredia/plant,"[3]; post-inoculation, 0.01 mM",134 Uredia/plant
same,% control,"[3]; post-inoculation, 0.025 mM",44%
same,Uredia/plant,"[3]; post-inoculation, 0.025 mM",117 Uredia/plant
same,% control,"[3]; post-inoculation, 0.065 mM",55%
same,Uredia/plant,"[3]; post-inoculation, 0.065 mM",94 Uredia/plant
same,% control,"[3]; post-inoculation, 0.10 mM",76%
same,Uredia/plant,"[3]; post-inoculation, 0.10 mM",51 Uredia/plant
same,% control,"[3]; post-inoculation, 0.13 mM",77%
same,Uredia/plant,"[3]; post-inoculation, 0.13 mM",49 Uredia/plant
same,% control,"[3]; post-inoculation, 0.16 mM",81%
same,Uredia/plant,"[3]; post-inoculation, 0.16 mM",40 Uredia/plant
same,% control,"[3]; post-inoculation, 0.20 mM",82%
same,Uredia/plant,"[3]; post-inoculation, 0.20 mM",37 Uredia/plant
same,% control,"[3]; post-inoculation, 1.00 mM",92%
same,Uredia/plant,"[3]; post-inoculation, 1.00 mM",17 Uredia/plant
same,"ED50, wheat stem rust",[3]; pre-inoculation treatment,560 µM
same,% control,"[3]; pre-inoculation, 0.01 mM",8%
same,Uredia/plant,"[3]; pre-inoculation, 0.01 mM",194 Uredia/plant
same,% control,"[3]; pre-inoculation, 0.025 mM",17%
same,Uredia/plant,"[3]; pre-inoculation, 0.025 mM",175 Uredia/plant
same,% control,"[3]; pre-inoculation, 0.065 mM",13%
same,Uredia/plant,"[3]; pre-inoculation, 0.065 mM",182 Uredia/plant
same,% control,"[3]; pre-inoculation, 0.10 mM",13%
same,Uredia/plant,"[3]; pre-inoculation, 0.10 mM",183 Uredia/plant
same,% control,"[3]; pre-inoculation, 0.13 mM",19%
same,Uredia/plant,"[3]; pre-inoculation, 0.13 mM",170 Uredia/plant
same,% control,"[3]; pre-inoculation, 0.16 mM",32%
same,Uredia/plant,"[3]; pre-inoculation, 0.16 mM",143 Uredia/plant
same,% control,"[3]; pre-inoculation, 0.20 mM",32%
same,Uredia/plant,"[3]; pre-inoculation, 0.20 mM",143 Uredia/plant
same,% control,"[3]; pre-inoculation, 1.00 mM",57%
same,Uredia/plant,"[3]; pre-inoculation, 1.00 mM",91 Uredia/plant
same,Lesions per cm^2,[4]; [11],0 per cm^2
same,Lesions per leaf,[4]; [11],0 per leaf
same,Lesions per cm^2,[4]; [12],0 per cm^2
same,Lesions per leaf,[4]; [12],0 per leaf
same,Lesions per cm^2,[4]; [13],0 per cm^2
same,Lesions per leaf,[4]; [13],0 per leaf
same,Lesions per cm^2,[4]; [14],41 ± 5 per cm^2
same,Lesions per leaf,[4]; [14],2330 ± 211 per leaf
same,Lesions per cm^2,[4]; [15],53 ± 4 per cm^2
same,Lesions per leaf,[4]; [15],3278 ± 326 per leaf
same,reduction of number of lesions,[5]; 0.05 mM DFMO alone,70%
same,Lesions per cm^2,[5]; [16],22 ± 4 per cm^2
same,Lesions per leaf,[5]; [16],1223 ± 268 per leaf
same,"Lesions per leaf, percent of control",[5]; [16],30% of control
same,inhibition at 50 µM,"[5]; Uromyces phaseoli, 0.05 mM DFMO, read-out: inhibition of uredial development",~50%
same,spore germination on leaf surface,[6]; lower concentrations of DFMO,partially inhibited
same,spore germination on leaf surface,[6]; more than 0.5 mM DFMO,completely inhibited
same,Radial growth (cm),[7]; 0.10 mM,4.5 cm
same,Radial growth (cm),[7]; 0.25 mM,4.5 cm
same,Radial growth (cm),[7]; 0.50 mM,4.5 cm
same,Radial growth (cm),[7]; 0.65 mM,4.4 cm
same,Radial growth (cm),[7]; 1.00 mM,4.0 cm
same,Radial growth (cm),[7]; 5.00 mM,3.8 cm
same,inhibition of growth at 650 µM,"[7]; Colletotrichum orbiculare, 0.65 mM, read-out: Percent control",2%
same,inhibition of growth at 1000 µM,"[7]; Colletotrichum orbiculare, 1.00 mM, read-out: Percent control",7%
same,inhibition of growth at 5000 µM,"[7]; Colletotrichum orbiculare, 5.00 mM, read-out: Percent control",16%
same,effect on fungus growing in Czapek's agar,[7]; up to 5 mM,not affected
same,mycelial growth in vitro,[8],inhibited mycelial growth
same,toxicity,[9],low toxicity
same,protection of newly emerged trifoliolate leaves,"[10]; 5.0 mM DFMO, reinoculated after 1 week",complete protection
same,Lesions per cm^2,[10]; [17],59 ± 1 per cm^2
same,Lesions per leaflet,[10]; [17],1246 ± 73 per leaflet
same,Lesions per cm^2,[10]; [18],58 ± 4 per cm^2
same,Lesions per leaflet,[10]; [18],1289 ± 131 per leaflet
same,Lesions per cm^2,[10]; [19],41 ± 4 per cm^2
same,Lesions per leaflet,[10]; [19],982 ± 84 per leaflet
same,Lesions per cm^2,[10]; [20],22 ± 2 per cm^2
same,Lesions per leaflet,[10]; [20],422 ± 13 per leaflet
same,Lesions per cm^2,[10]; [21],0 per cm^2
same,Lesions per leaflet,[10]; [21],0 per leaflet
same,Lesions per cm^2,[10]; [22],64 ± 5 per cm^2
same,Lesions per leaflet,[10]; [22],1458 ± 92 per leaflet
same,Lesions per cm^2,[10]; [23],55 ± 3 per cm^2
same,Lesions per leaflet,[10]; [23],1274 ± 120 per leaflet
same,Lesions per cm^2,[10]; [24],39 ± 7 per cm^2
same,Lesions per leaflet,[10]; [24],1172 ± 158 per leaflet
same,Lesions per cm^2,[10]; [25],16 ± 2 per cm^2
same,Lesions per leaflet,[10]; [25],320 ± 22 per leaflet
same,Lesions per cm^2,[10]; [26],0 per cm^2
same,Lesions per leaflet,[10]; [26],0 per leaflet
